Entries after “also recorded” stand apart in the source; their conditions may differ.
Key:
HepG2 cells = assay: Flow cytometry of uptake in HepG2 cells (ASGPR positive); assay type: cell-based; conditions: 100 nM in HBSS
Procedure: (§1) Cellular association via the typical holo-IF target receptor, CUBN, was conducted in CUBN positive, CD206 negative (see western blot, FIG. 10) BN16 (Brown Norway rat yolk) cells via flow cytometry using fluorescent B12-Cy5 to show functionalization of the IF-B12 complex in vitro (FIG. 3).
(§2) Flow cytometry: Flow cytometry analyses were carried out on a Becton Dickinson LSRII Cell Analyzer.
(§3) Cell culture: Cell lines J774A.1 (ATCC TIB-67; CD206 positive), CHO-K1 (ATCC CCL-61; control line) and HepG2 (SIGMA 85011430; ASGPR positive) were obtained from the American Type Culture Collection (ATCC). BN16 cells (cubilin positive) were kindly provided by Prof. Pierre Verroust (INSERM, Paris, France). J774A.1 and BN16 cells were cultured as adherent monolayers in DMEM supplemented with 10% FBS and 1% pen/strep (Penicillin-streptomycin solution with 10,000 units penicillin and 10 mg/mL streptomycin in 0.9% NaCl obtained from Thermo Fisher). CHO-K1 were cultured as adherent monolayers in F12-K supplemented with 10% FBS and 1% pen/strep. Cells were incubated at 37° C. with 5% C02. Hank's balanced salt solution (HBSS) was purchased from Sigma. […]
(§4) Flow cytometry measurements of cellular internalization: Cells were plated on a 6-well plate and allowed to adhere for at least 24 h until at least 80% confluency. […] All cells were excited at 640 nm and detected at 660±20 nm.

J774A.1 cells = assay: Flow cytometry of uptake in J774A.1 macrophage cells (CUBN-, CD206+), with or without mannan block; assay type: cell-based
Procedure: Adding mannan (2 mg/mL), 45 minutes prior to, and concomitant with IF-B12-Cy5 incubation, reduced IF-B12-Cy5 uptake (FIG. 3) supporting a mannose receptor mediated process.
as §2
Cell culture: Cell lines J774A.1 (ATCC TIB-67; CD206 positive), CHO-K1 (ATCC CCL-61; control line) and HepG2 (SIGMA 85011430; ASGPR positive) were obtained from the American Type Culture Collection (ATCC). BN16 cells (cubilin positive) were kindly provided by Prof. Pierre Verroust (INSERM, Paris, France). J774A.1 and BN16 cells were cultured as adherent monolayers in DMEM supplemented with 10% FBS and 1% pen/strep (Penicillin-streptomycin solution with 10,000 units penicillin and 10 mg/mL streptomycin in 0.9% NaCl obtained from Thermo Fisher). CHO-K1 were cultured as adherent monolayers in F12-K supplemented with 10% FBS and 1% pen/strep. Cells were incubated at 37° C. with 5% C02. Hank's balanced salt solution (HBSS) was purchased from Sigma. Charcoal stripped fetal bovine serum (FBS) and were purchased from Sigma.
as §4

CHO-K1 cells = assay: Flow cytometry of uptake in CHO-K1 cells (CUBN and CD206 free); assay type: cell-based, Chinese hamster; conditions: 100 nM in HBSS
Procedure: as §1, §2, §3, §4

BN16 cells = assay: Flow cytometry of cellular association in BN16 cells (CUBN positive, CD206 negative); assay type: cell-based, Brown Norway rat; conditions: 200 nM, HBSS, 1 h
Procedure: as §1, §2, §3, §4

human gastric IF = molecular target: T1, human gastric IF (Homo sapiens, UniProt P27352); assay: IF binding affinity, radiometric chase assay using 57Co-B12; conditions: cold tracer
T1 construct: purchased Xeragenx LLC (St. Louis, Mo., USA); host or cells: Arabidopsis thaliana
T1 sequence (P27352 19-417): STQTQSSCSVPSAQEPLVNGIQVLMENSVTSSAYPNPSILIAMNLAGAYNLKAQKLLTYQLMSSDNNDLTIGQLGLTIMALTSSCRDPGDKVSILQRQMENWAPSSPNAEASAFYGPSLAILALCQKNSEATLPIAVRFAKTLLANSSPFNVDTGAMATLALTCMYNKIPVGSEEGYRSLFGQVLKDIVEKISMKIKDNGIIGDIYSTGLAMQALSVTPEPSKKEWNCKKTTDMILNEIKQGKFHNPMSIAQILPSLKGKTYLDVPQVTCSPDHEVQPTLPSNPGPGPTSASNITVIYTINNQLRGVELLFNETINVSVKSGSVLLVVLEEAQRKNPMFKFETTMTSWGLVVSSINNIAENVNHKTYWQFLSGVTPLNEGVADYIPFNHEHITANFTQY
Procedure: To confirm IF binding of ^89Zr-B12, a radiometric chase assay[15] was completed with a ‘cold’ ^91Zr bound to B12 tracer (^91Zr-B12) and compared to free B12, as cyanocobalamin (CN-B12) (FIG. 2). ^91Zr-B12 was made using B12-DFO and chelated to ^91ZrCl4 at pH 7-7.5. IF binding of ^91Zr-B12 was maintained at low nanomolar levels (1.57 nM), similar to CN-B12 control (1.36 nM).
IF binding affinities: To confirm that ^89Zr-B12 will bind to IF, a radiometric chase assay, using ^57Co-B12 was completed (as previously reported)[15] with a cold tracer (^91Zr-B12) and compared to free B12, as cyanocobalamin (CN-B12). Zr-B12 was made using B12-DFO and chelated to ZrCl4 at pH 7.5.

Row | Kd (human gastric IF) [nM] | Substance | uptake / internalization (flow cytometry) (HepG2 cells) | binding / uptake (flow cytometry) (J774A.1 cells; 200 nM, HBSS, 1 h, 37° C.) | uptake with mannan block (J774A.1 cells; mannan 2 mg/mL 45 minutes prior to and concomitant with incubation) | uptake / internalization (flow cytometry) (CHO-K1 cells) | cellular association (flow cytometry) at 4° C. (BN16 cells; 4° C.) | cellular association (flow cytometry) (BN16 cells; 37° C.)
1 | – | IF-B12-Cy5: B12-Cy5 bound to recombinant human intrinsic factor (IF-B12 complex) | not internalized | binding | reduced; also recorded: near complete block in uptake | Neither compound was internalized | Reduction in binding (or internalization) | significant association
2 | 1.36 | cyanocobalamin [CN-B12] | – | – | – | – | – | –
